Activity calls are given as the source filed them. The rule behind the calls is not given here.
Experiments:
[1] = biological target: Human immunodeficiency virus type 1 reverse transcriptase (Human immunodeficiency virus 1, UniProt Q72547); experiment: Inhibition of HIV1 reverse transcriptase activity after 1 hr by ELISA
HeLa = experiment: Cytotoxicity against human HeLa cells up to 200 uM after 48 hrs by MTT assay

Structure (SMILES) | IC50 [1] [µM] | Activity (HeLa)
O=c1ccn([C@@H]2O[C@H](CNCc3c(F)cccc3Cl)[C@@H](O)[C@H]2O)c(=O)[nH]1 | 4.99 | inactive
O=c1[nH]c(=O)n([C@@H]2O[C@H](CNCc3ccc(Cl)cc3)[C@@H](O)[C@H]2O)cc1F | 3.75 | inactive
O=c1ccn([C@@H]2O[C@H](CNCc3c(Cl)cccc3Cl)[C@@H](O)[C@H]2O)c(=O)[nH]1 | 4.72 | inactive
O=c1[nH]c(=O)n([C@@H]2O[C@H](CNCc3c(Cl)cccc3Cl)[C@@H](O)[C@H]2O)cc1F | 4.84 | inactive
O=c1[nH]c(=O)n([C@@H]2O[C@H](CNCc3c(F)cccc3Cl)[C@@H](O)[C@H]2O)cc1F | 3.9 | inactive
O=c1[nH]c(=O)n([C@@H]2O[C@H](CNCc3ccccc3Cl)[C@@H](O)[C@H]2O)cc1F | 3.53 | inactive
O=c1ccn([C@@H]2O[C@H](CNCc3ccccc3Cl)[C@@H](O)[C@H]2O)c(=O)[nH]1 | 6.13 | inactive
O=c1ccn([C@@H]2O[C@H](CNCc3ccc(Cl)cc3)[C@@H](O)[C@H]2O)c(=O)[nH]1 | 2.82 | inactive
